The text below walks through data of patent US9719981B2, “RAC1 inhibitors for the treatment of alport glomerular disease” (Father Flanagan's Boys' Home, priority 2012, dated 2017).

One experiment concerns glomerular injury. The conditions noted are these: lipopolysaccharide or anti-GBM antibody administration; cited from earlier work.
The test system of the next experiment is cultured podocytes. The experiment is described as follows: Real time qRT-PCR for MMP transcripts in cultured podocytes, static and stretched. The conditions noted are these: relative to untreated cells. The format is cell-based, mouse. Here is the method: NF-κB Staining and −/+ Stretch pFAK397 Western Blot. GEC's were differentiated under “non-permissive” conditions for ten days, plated onto Bioflex 6-well plates (Flexcell International, Hillsborough, N.C.) coated with Collagen Type 1 (rat tail, BD Biosciences, Bedford, Mass.)/Placental Laminin (Sigma), cultured for two days in 0.5% FCS and exposed to mechanical strain for 4 hours, as previously described (Meehan et al., 2009, Kidney Int; 76: 968-976). For NF-κB Staining, cells were fixed with 2% PFA, 4% Sucrose in PBS for 10 minutes, permeabilized with 0.3% Triton, as previously described (Rao et al., 2006, Am J Pathol; 169: 32-46) incubated with αNF-κB P65 antibody at 1:50 overnight at 4° C., incubated with anti-rabbit secondary antibody at 1:750 for two hours at room temperature, gaskets were cut out, mounted on slides with […]™ (Vector Laboratories, Burlingame, Calif.) and cover slipped. For −/+ Stretch pFAK Western, protein was collected in M-PER (Thermo Scientific) as above and Western Blot run as described below.
NF-κB SN50, Inhibitor Peptide Treatment, GEC's were cultured as described above, 10 μM NF-κB SN50 Inhibitor Peptide (EMD Millipore, Billerica, Mass.) was added (and after one additional hour) exposed to 20 hours of mechanical strain and RNA collected as previously described (Meehan et al., 2009, Kidney Int; 76: 968-976).
Real time qRT-PCR. Total RNA was reverse transcribed using […]® III (Invitrogen, Life Technologies, Grand Island, N.Y.) with Oligo(dT)20 Primer (Invitrogen). The real time PCR was carried out using TAQMAN® Gene Expression Master Mix (Applied Biosystems, Life Technologies, Grand Island, N.Y.), and quantified using STEPONEPLUS™ Real-Time PCR System (Applied Biosystems). Samples were normalized to Mouse GAPDH Endogenous Control VIC® Probe (Applied Biosystems catalogue #4352339E) which was run alongside MMP-9 (Catalog #4331182, ID# Mm00442991_m1), MMP-10 (Catalog #4331182, ID# Mm00444630_m1), MMP-12 (Catalog #4331182, ID# Mm00500554_m1), IL-6 (Catalog #4331182, ID# Mm00446190_m1), NFKbia (Catalog #4331182, ID# Mm00477798_m1), and FAK (Catalog #4331182, ID# Mm00433209_m1) TAQMAN® Gene Expression Assay Probes (Applied Biosystems). Samples were run in triplicate with a final reaction volume of 20 ul with the following cycling parameters: 50° C. for 2 min, 95° C. for 10 min, followed by 40 cycles of a two-step PCR consisting of 95° C. for 15 s and 60° C. for 1 min. Relative changes in gene expression were determined by calculating the fold change using the comparative CT method of 2^−ΔΔCT. Data are expressed as the mean with standard deviation for at least four independent RNA samples per data point.

Another experiment concerns FAK. The experiment is described as follows: pFAK397 western blot in cultured podocytes -/+ TAE226. Particulars: 20 μM TAE226, podocytes on placental laminin. In kind it is cell-based, mouse. As for the experimental part:
Basal Lamina and −/+ TAE226 pFAK^397 Western Blots. 10 day differentiated GEC's were cultured in 0.5% FCS for 2 days and plated onto tissue culture dishes previously coated with 50 μg/ml Collagen Type 1 Rat Tail (BD Biosciences) and 2 μg/cm^2 Placental Laminin (Sigma) in 0.1% BSA containing media. For Basal Lamina experiment, additional dishes were coated with Collagen Type 1 and 1.25 μg/cm^2 EHS Laminin (BD Biosciences) or […] Merosin (Chemicon, Temecula Calif.). For −/+ TAE266 experiment, 20 μM TAE226 was included in the media. Protein was collected 15 hours later in M-PER (Thermo Scientific) as above and Western Blot run as described below.
Immunoblotting. Ten to fifteen micrograms, of cellular protein, was resolved in a 10% SDS-PAGE and then electrotransfered to PVDF membrane. The membranes were cut in half and the upper half (250 kDa to 75 kDa) used for pFAK/tFAK immunoblotting while the bottom half used for β-actin immunoblotting (loading control). Conditions for pFAK detection: the membrane was blocked in milk blocking solution (5% milk containing 0.2% Tween-20 in PBS) for 1 hour at room temperature with constant shaking and incubated overnight at 4° C. with anti-pFAK 1:1,000 in BSA blocking solution (1% BSA containing 0.2% Tween-20 in PBS). […]

As for `CNC(=O)c1ccccc1Nc1nc(Nc2ccc(N3CCOCC3)cc2OC)ncc1Cl` [TAE226], the “Protection against glomerular injury” value with glomerular injury is “protect against glomerular injury”. In addition, in the experiment on cultured podocytes (biomechanical stretch), the “MMP-10 message levels in stretched podocytes” value is “reduced” and the “MMP-12 message levels in stretched podocytes” value is on record as “reduced”. Moreover, in the experiment with cultured podocytes (static conditions), the “MMP-10 expression in podocytes” value is given as “reduced expression” and the “MMP-12 expression in podocytes” value is listed as “reduced expression”. Further, the “Activation state of FAK (pFAK397) in cultured podocytes” value in the experiment on FAK is reported as “reduced”.
